Measured values: US20050009889A1 (priority 2002, published 2005)
Read-outs that look alike come from different tables or passages of the source. Marks after values point to notes of the source that are not given here.

What was measured:
Type in all cases: in vivo
[1] = test system: Erysiphe graminis f. sp. tritici; experiment: Test A: preventive control of wheat powdery mildew on wheat seedlings; details: wheat seedlings sprayed to run-off, inoculated next day, rated after 7 days; concentration not given
From the text: (§1) General protocol for preparing test suspensions: Test compounds are first dissolved in acetone in an amount equal to 3% of the final volume and then suspended at the desired concentration (in ppm) in acetone and purified water (50/50 mix) containing 250 ppm of the surfactant Trem® 014 (polyhydric alcohol esters). The resulting test suspensions are then used in the following tests. Spraying a 200 ppm test suspension to the point of run-off on the test plants is the equivalent of a rate of 500 g/ha.
The test suspension was sprayed to the point of run-off on wheat seedlings. The following day the seedlings were inoculated with a spore dust of Erysiphe graminis f. sp. tritici, (the causal agent of wheat powdery mildew) and incubated in a growth chamber at 20° C. for 7 days, after which disease ratings were made.

Puccinia recondita = experiment: Test B: preventive control of wheat leaf rust on wheat seedlings; details: wheat seedlings sprayed to run-off, inoculated next day; concentration not given
From the text: as §1
(§2) The test suspension was sprayed to the point of run-off on wheat seedlings. The following day the seedlings were inoculated with a spore suspension of Puccinia recondita (the causal agent of wheat leaf rust) and incubated in a saturated atmosphere at 20° C. for 24 h, and then moved to a growth chamber at 20° C. for 6 days, after which disease ratings were made.

Pyricularia oryzae = details: rice seedlings sprayed to run-off, inoculated next day; concentration not given
Phytophthora infestans [2] = details: tomato seedlings sprayed to run-off, inoculated next day; concentration not given
Plasmopara viticola [3] = experiment: Test E: preventive control of grape downy mildew on grape seedlings
From the text: as §1
as §2, with “grape” for “wheat”, “Plasmopara viticola” for “Puccinia recondita”, “grape downy mildew)” for “wheat leaf rust)”, “h,” for “h, and then”, “days, and then incubated in a saturated atmosphere at 20° C. for 24 h,” for “days,”

Plasmopara viticola [4] = experiment: Test G: curative control of grape downy mildew on grape seedlings
From the text: as §1
Grape seedlings are inoculated with a spore suspension of Plasmopara viticola (the casual agent of grape downy mildew) and incubated in a saturated atmosphere at 20° C. for 24 h. The next day, test suspension is sprayed to the point of run-off and the treated plants are moved to a growth chamber at 20° C. for 6 days, and then incubated in a saturated atmosphere at 20° C. for 24 h, after which disease ratings are made.

Phytophthora infestans [5] = test system: Phytophthora infestans
grape downy mildew = experiment: Curative utility, in addition to the Tests of Table A; details: especially for grape downy mildew
[6] = grape seedlings sprayed to run-off, inoculated next day, concentration not given
[7] = grape seedlings inoculated, sprayed next day (curative), concentration not given
[8] = curative, 100 ppm on potato seedlings
[9] = grape seedlings, curative, 20 ppm

Row | Compound | Test A disease control rating (100 = 100% disease control, 0 = no control) [1] [%] | Test B disease control rating (100 = 100% disease control, 0 = no control) (Puccinia recondita) [%] | Test C disease control rating (100 = 100% disease control, 0 = no control) (Pyricularia oryzae) [%] | Test D disease control rating (100 = 100% disease control, 0 = no control) (Phytophthora infestans [2]) [%] | Test E disease control rating (100 = 100% disease control, 0 = no control) (Plasmopara viticola [3]; [6]) [%] | Test G disease control rating (100 = 100% disease control, 0 = no control) (Plasmopara viticola [4]; [7]) [%] | Test F disease control rating (100 = 100% disease control, 0 = no control) (Phytophthora infestans [5]; [8]) | Test G disease control rating (100 = 100% disease control, 0 = no control) (Plasmopara viticola [4]; grape seedlings, curative, 100 ppm (footnote *)) | curative utility (grape downy mildew) | Test E disease control rating (100 = 100% disease control, 0 = no control) (Plasmopara viticola [3]; grape seedlings, preventive, 100 ppm (footnote *)) | Test G disease control rating (100 = 100% disease control, 0 = no control) (Plasmopara viticola [4]; [9]) | Test F disease control rating (100 = 100% disease control, 0 = no control) (Phytophthora infestans [5]; seedlings inoculated, sprayed next day (curative), concentration not given) [%]
1 | Cc1nc(Cl)ccc1C(=O)NCc1ncc(C(F)(F)F)cc1Cl [Compound 17] | 0 | 9 | 13 | 79 | 16 | 16 |  |  |  |  |  | 
2 | COc1ncccc1C(=O)NCc1ncc(C(F)(F)F)cc1Cl [Compound 9] | 0 | 19 | 0 | 7 | 24 | 24 |  |  |  |  |  | 
3 | COc1nc(C(F)(F)F)ccc1C(=O)NCc1ncc(C(F)(F)F)cc1Cl [Compound 16] | 0 | 0 | 0 | 7 | 0 | 0 |  |  |  |  |  | 
4 | Nc1ncccc1C(=O)NCc1ncc(C(F)(F)F)cc1Cl [Compound 6] | 0 | 28 | 0 | 7 | 0 | 8 |  |  |  |  |  | 
5 | 2,4-Dichloro-N-[[3-chloro-5-(trifluoromethyl)-2-pyridinyl]methyl]-3-pyridinecarboxamide [Compound 19] | 0 | 35 | 0 | 100 | 100 |  | 97# % | 37* % | significant curative utility |  |  | 
6 | Cc1ccc(C(=O)NCc2ncc(C(F)(F)F)cc2Cl)c(O)n1 [Compound 13] | 0 | 9 | 0 | 7 | 8 | 8 |  |  |  |  |  | 
7 | O=C(NCc1ncc(C(F)(F)F)cc1Cl)c1ccc(C(F)(F)F)nc1 [Compound 18] | 0 | 32 | 0 | 25 | 0 | 0 |  |  |  |  |  | 
8 | Cc1nc(C(F)(F)C(F)(F)F)ccc1C(=O)NCc1ncc(C(F)(F)F)cc1Cl [Compound 15] | 69 | 68 | 88 | 16 | 8 | 8 |  |  |  |  |  | 
9 | CC(NC(=O)c1c(Cl)ccnc1Cl)c1ncc(C(F)(F)F)cc1Cl (single isomer, unassigned; (-)) [Compound 23, (−)-2,4-Dichloro-N-[-1-[3-chloro-5-(trifluoromethyl)-2-pyridinyl]ethyl]-3-pyridinecarboxamide] |  |  |  |  |  |  | 65# % |  |  | 69* % | 0** % | 
10 | Cc1ccc(C(=O)NCc2ncc(C(F)(F)F)cc2Cl)c(Cl)n1 [Compound 11] | 0 | 19 | 90 | 100 | 98 | 99 |  |  |  |  |  | 0
11 | Cc1cc(Cl)c(C(=O)NCc2ncc(C(F)(F)F)cc2Cl)c(Cl)n1 [Compound 5, 2,4-Dichloro-N-[[3-chloro-5-(trifluoromethyl)-2-pyridinyl]methyl]-6-methyl-3-pyridinecarboxamide] | 0 | 8 |  | 100 | 100 | 96 | 100# % |  | significant curative utility |  |  | 
12 | Cc1nc(C(F)(F)F)ccc1C(=O)NCc1ncc(C(F)(F)F)cc1Cl [Compound 14] | 0 | 28 | 87 | 25 | 8 | 8 |  |  |  |  |  | 
13 | CCOc1ncccc1C(=O)NCc1ncc(C(F)(F)F)cc1Cl [Compound 10] | 0 | 9 | 0 | 3 | 23 | 23 |  |  |  |  |  | 
14 | O=C(NCc1ncc(C(F)(F)F)cc1Cl)c1ccc(C(F)(F)F)nc1Br [Compound 12] | 0 | 9 | 80 | 32 | 0 | 0 |  |  |  |  |  | 
15 | CC(NC(=O)c1c(Cl)ccnc1Cl)c1ncc(C(F)(F)F)cc1Cl (single isomer, unassigned; (+)) [Compound 22, (+)-2,4-Dichloro-N-[1-[3-chloro-5-(trifluoromethyl)-2-pyridinyl]ethyl]-3-pyridinecarboxamide] |  |  | 0 | 100 | 100 |  | 100# % |  | significant curative utility |  | 100** % | 
16 | O=C(NCc1ncc(C(F)(F)F)cc1Cl)c1cncc(Br)c1 [Compound 7] | 0 | 9 | 74 | 16 | 0 | 0 |  |  |  |  |  | 
17 | O=C(NCc1ncc(C(F)(F)F)cc1Cl)c1cccnc1O [Compound 8] | 0 | 9 | 0 | 7 | 8 | 8 |  |  |  |  |  | 
